Assay results from paper PMC6891756, “Synthesis and Biological Evaluation of Novel Aminochalcones as Potential Anticancer and Antimicrobial Agents” (Molecules, 2019).
In brackets after ≈: the same amount, converted by molar mass.

How the values were obtained:
HT-29 = test: SRB antiproliferative assay, HT-29; type: cell-based, human; conditions: SRB, 48 h, 1–100 µg·mL^−1, ND = not detected in the tested concentration range
Summary of the method: (§1)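 Cells seeded at 5·10^3/well overnight, then exposed to aminochalcone derivatives at 1–100 µg·mL^−1 for 48 h at 37 °C and stained with sulforhodamine B. IC50 calculated from three independent experiments, each run in quadruplicate.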

LS180 = test: SRB antiproliferative assay, LS180; type: cell-based, human; conditions: 1–100 µg·mL^−1, ND = not detected in the tested concentration range
Summary of the method: as §1

[1] = system: green monkey kidney fibroblasts COS7; test: SRB assay, normal fibroblasts COS7; type: cell-based; conditions: 48 h, normal cell line, ND = not detected in the tested concentration range
Summary of the method: (§2)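 Antiproliferative effect is determined by SRB after 48 h incubation with compound concentrations from 1 to 100 µg·mL^−1, in quadruplicate; IC50 averaged over three experiments.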

LoVo/DX = test: SRB antiproliferative assay, LoVo/DX; type: cell-based, human; conditions: 48 h, 1–100 µg·mL^−1, ND = not detected in the tested concentration range
Summary of the method: as §1

LoVo = test: SRB antiproliferative assay, LoVo; type: cell-based, human; conditions: 48 h, 1–100 µg·mL^−1, ND = not detected in the tested concentration range
Summary of the method: as §1

Candida albicans DSM1386 = test: MIC evaluation (broth method), C. albicans; type: cell-based; conditions: DSM1386, broth method, 48–72 h, read-out: Minimal inhibitory concentration C. albicans
Method: (§3) Sterile 96-well microtiter plates (Sarstedt) with nutrient broth (for bacteria) (Biocorp) or YM medium (for yeast and filamentous fungi) were inoculated with a standardized cell suspension of bacteria and yeast or fungal spores of 10^5 cell·mL^−1, and supplemented with aminochalcones dissolved in DMSO. […] All analysis were conducted in triplicates. The plates were incubated at 30 °C (bacteria and yeast) or 25 °C (filamentous fungi) for 48–72 h. The results were measured with the Spark® Multimode Microplate Reader (Tecan, Männedorf, Switzerland) at a 560 nm wavelength. The minimal inhibitory concentration was defined as the lowest concentration of a tested compound that completely restricted the growth of the microorganism. In order to verify the obtained results, microbial cultures subjected to each concentration of aminochalcone were inoculated onto nutrient agar or YM plates and incubated as described above. The lack of growth on agar plate was a confirmation of the MIC of the tested compound. The resulting MIC values were compared with the reference substances: oxytetracycline (against bacteria), cycloheximide (against yeast) and nystatin (against fungi) (Sigma Aldrich).

[2] = system: Alternaria alternata CBS1526; test: Microbial growth curve screening, A. alternata; type: cell-based; conditions: 0.1% (w/v), OD at 560 nm, control 1.86
Summary of the method: (§4)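 Broth cultures (nutrient broth for bacteria, YM medium for fungi) exposed to compound at 0.1% (w/v) final, added from DMSO solution; 28 °C with continuous shaking. OD 560 nm read every 30 min for 2–3 days, triplicates; activity given as ΔOD versus DMSO control cultures.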

[3] = system: human breast cancer cell line T47D; design: method as in earlier work; conditions: cited from earlier work
Fusarium linii KB-F1 [4] = test: MIC evaluation (broth method), F. linii; type: cell-based; conditions: Fusarium, KBF1, 48–72 h, read-out: Minimal inhibitory concentration F. linii
Method: as §3

[5] = system: Escherichia coli ATCC10536; test: MIC evaluation (broth method), E. coli; type: cell-based; conditions: 48–72 h, read-out: Minimal inhibitory concentration E. coli
Summary of the method: (§5)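 Microdilution, YM (yeast/fungi) or nutrient broth (bacteria); 10^5 cell·mL^−1; compounds in DMSO; 25 °C fungi / 30 °C yeast, bacteria; 48–72 h; A560; MIC = no growth, agar-plate confirmed; n=3.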

[6] = system: Escherichia coli ATCC10536; test: Microbial growth curve screening, E. coli; type: cell-based; conditions: 0.1% (w/v), OD at 560 nm, control 1.61
Summary of the method: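 First, microbial suspension and DMSO-dissolved compound (final 0.1% w/v) were combined in medium: nutrient broth for bacteria, YM for fungi. Plates were then incubated at 28 °C under shaking while absorbance at 560 nm was logged at 30 min intervals over 2–3 days. Finally, mean curves gave ΔOD against controls.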

[7] = system: all tested microorganisms; test: MIC evaluation, all tested strains (pooled statement); type: cell-based; conditions: read-out: MIC values against all tested microorganisms
Method: as §3

[8] = system: all tested microorganisms; test: Growth curve screening, all tested microorganisms (pooled statement); type: cell-based; conditions: 0.1% (w/v)
Method: The antimicrobial screening tests were performed on two strains of bacteria: E. coli ATCC10536 and S. aureus DSM799, strain of yeast C. albicans DSM1386 and three strains of fungi: F. linii KB-F1, A. alternata CBS1526 and A. niger DSM1957. All microorganisms were obtained from the collection of the Faculty of Biotechnology and Food Microbiology, Wrocław University of Environmental and Life Sciences. The bacteria were cultured in nutrient broth (Biocorp, Warsaw, Poland), yeast and fungi in YM medium (3 g yeast extract, 3 g malt extract, 5 g bacteriological peptone and 10 g of glucose dissolved in 1 L of distilled water). The tests were carried out in 100-well microtiter plates. […] The optical density of the cell suspension was measured on Bioscreen C (Automated Growth Curve Analysis System Lab System, Vantaa, Finland) at 560 nm automatically, at regular intervals of 30 min for 2–3 days. […] To prepare the growth curves for each strain, the mean values of the absorbance in a function of time were used. The resulting antimicrobial activity was expressed as the increase of optical density (ΔOD) and was compared to that of the control cultures in the medium supplemented with dimethyl sulfoxide and also with reference substances: oxytetracycline (against bacteria), cycloheximide (against yeast) and nystatin (against fungi) (Sigma Aldrich).

[9] = system: Alternaria alternata CBS1526; test: MIC evaluation (broth method), A. alternata; type: cell-based; conditions: Alternaria alternata, CBS1526, 48–72 h, read-out: Minimal inhibitory concentration A. alternata
Method: as §3

[10] = system: Aspergillus niger DSM1957; test: MIC evaluation (broth method), A. niger; type: cell-based; conditions: Aspergillus niger, DSM1957, 48–72 h, read-out: Minimal inhibitory concentration A. niger
Method: as §3

[11] = system: Staphylococcus aureus DSM799; test: MIC evaluation (broth method), S. aureus; type: cell-based; conditions: 48–72 h, read-out: Minimal inhibitory concentration S. aureus
Summary of the method: as §5

[12] = SRB assay, normal fibroblasts COS7; type: cell-based, green monkey; conditions: green monkey, COS7 kidney fibroblasts (normal cell line), ND = not detected in the tested concentration range
Summary of the method: as §2

Fusarium linii KB-F1 [13] = test: Microbial growth curve screening, F. linii; type: cell-based; conditions: 0.1% (w/v), OD at 560 nm, control 1.95
Summary of the method: as §4

[14] = system: Staphylococcus aureus DSM799; test: Microbial growth curve screening, S. aureus; type: cell-based; conditions: 0.1% (w/v), OD at 560 nm, control 1.67
Summary of the method: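 Growth inhibition is expressed as ΔOD, compared with cultures in medium containing DMSO alone. Triplicate wells with 0.1% (w/v) compound were followed at 560 nm for 2–3 days at 28 °C.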

N.N.[Cl][Pt][Cl] [Compound 19, Cisplatin, reference compound]
IC50 HT-29 (HT-29): 16.73 ± 0.58 µg/mL
IC50 LS180 (LS180; 48 h): 1.49 ± 0.13 µg/mL
IC50 COS7 [1]: 3.86 ± 0.62 µg/mL
IC50 LoVo/DX (LoVo/DX): 2.03 ± 0.17 µg/mL
IC50 LoVo (LoVo): 2.09 ± 0.12 µg/mL

Nc1ccc(C(=O)/C=C/c2ccccc2)cc1 [Compound 3, 4′-Aminochalcone]
MIC (Candida albicans DSM1386): 0.5 µg/mL (≈ 2.24 µM)
∆OD A. alternata [2]: 0.0
IC50 T47D (literature) [3]: 5.28 µg/mL (≈ 23.6 µM)
IC50 (HT-29; Homo sapiens, HT-29): 1.98 ± 0.18 µg/mL (≈ 8.87 µM)
IC50 (LS180; Homo sapiens, LS180, 48 h): 4.68 ± 0.09 µg/mL (≈ 21 µM)
MIC (Fusarium linii KB-F1 [4]): 0.25 µg/mL (≈ 1.12 µM)
MIC [5]: 0.5 µg/mL (≈ 2.24 µM)
∆OD E. coli [6]: 0.0
MIC [7]: 0.25 to 0.5 µg/mL (≈ 1.12 to 2.24 µM)
growth inhibition of all tested microorganisms [8]: complete inhibition of the growth
MIC [9]: 0.5 µg/mL (≈ 2.24 µM)
MIC [10]: 0.5 µg/mL (≈ 2.24 µM)
MIC [11]: 0.25 µg/mL (≈ 1.12 µM)
IC50 at 48 h [12]: 3.85 ± 0.28 µg/mL (≈ 17.2 µM)
IC50 (LoVo/DX; Homo sapiens, LoVo/DX): 2.26 ± 0.05 µg/mL (≈ 10.1 µM)
∆OD F. linii (Fusarium linii KB-F1 [13]): 0
∆OD S. aureus [14]: 0.0
IC50 (LoVo; Homo sapiens, LoVo): 2.84 ± 0.09 µg/mL (≈ 12.7 µM)
